The values that follow are results of earlier work, collected in patent US20040213859A1, “Organic nutrient for hair loss treatment” (priority 1999, published 2004).

Series [1] has as its system adrogenetic alopecia. Conditions: oral administration.
The target of series [2] is T1, type II 5-alpha-reductase (Homo sapiens, UniProt P31213).
T1 construct: host or cells: scalp (in vivo, treated individuals)
T1 sequence (P31213 1-254): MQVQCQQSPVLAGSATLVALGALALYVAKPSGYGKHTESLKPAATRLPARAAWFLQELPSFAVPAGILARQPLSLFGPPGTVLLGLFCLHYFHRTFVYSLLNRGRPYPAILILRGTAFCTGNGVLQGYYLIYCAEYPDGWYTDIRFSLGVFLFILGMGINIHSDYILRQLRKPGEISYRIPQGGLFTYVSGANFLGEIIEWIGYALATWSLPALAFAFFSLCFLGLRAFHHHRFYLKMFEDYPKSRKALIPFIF
The settings on record: by inhibiting conversion of testosterone to DHT.

Consider `CC(C)(C)NC(=O)[C@H]1CC[C@H]2[C@@H]3CC[C@H]4NC(=O)C=C[C@]4(C)[C@H]3CC[C@]12C` [Finisteride], for which the “hair loss, hair growth and appearance of hair” value in series [1] is “slowed hair loss, increased hair growth and improved the appearance of hair”. For the same molecule, the “scalp DHT (dihydrotestosterone)” value in series [2] is given as “effective in decreasing scalp DHT”.
